Results reported in patent publication US20040209900A1, “Treatment of lipodystrophy (lipid redistribution syndrome)” (priority 2003, published 2004).

System: lipodystrophy
Experiment: Observation of lipodystrophy signs and symptoms in patients using pentoxifylline for claudication
Type: in vivo, human
Description: It is believed that 80-85% of patients respond favorably with amelioration some or all of their symptoms.

[1] = diabetic HIV positive patients using pentoxifylline for claudication

CC(=O)CCCCn1c(=O)c2c(ncn2C)n(C)c1=O [pentoxifylline]
central fat deposition [1]: resolved or remitted
facial lines [1]: decreased and/or disappeared
leg vein prominence [1]: diminished or disappeared
signs and symptoms of lipodystrophy (diabetic HIV positive patients with peripheral vascular disease and intermittent claudication, using pentoxifylline for claudication): disappeared or were ameliorated
patients responding favorably with amelioration of some or all of their symptoms (patients using pentoxifylline, stated as 'It is believed'): 80-85%
